Results reported in paper PMC5967645 (European scientific journal, 2017).

Test system: calpain
Test: immunoblot of calcium-induced calpain-mediated spectrin breakdown product
Type: biochemical, Rattus norvegicus

SMILES: CCOC(=O)[C@H]1O[C@@H]1C(=O)N[C@@H](CC(C)C)C(=O)NCCC(C)C [E64d, 2S,3S-trans-epoxysuccinyl-L-leucylamido-3-methylbutane ethyl ester]
- IC50: 3 to 6 µM
